From ChEMBL document CHEMBL5149963, “Xanthenes in Medicinal Chemistry - Synthetic strategies and biological activities” (Eur J Med Chem, 2021)
≈ marks a conversion by molar mass, not a printed value.

Experiments:
[1] = Activation of AMPK in rat L6 cells assessed as increase in AMPK phosphorylation; type: cell-based
[2] = target: Glucocorticoid receptor (Homo sapiens) (UniProt P04150); assay: Binding affinity to human GR assessed as inhibition of enzyme substrate complex formation
[3] = Antioxidant activity assessed as DPPH radical scavenging activity at 50 to 250 microg/ml incubated for 20 mins relative to control; type: functional; settings: dose 50-250 µg/ml
[4] = Antioxidant activity assessed as ABTS radical scavenging activity at 50 to 250 microg/ml incubated for 7 mins relative to control; type: functional; settings: dose 50-250 µg/ml
[5] = Antioxidant activity assessed as DPPH radical scavenging activity relative to control; type: functional; set-up: concentration or dose not given beside the values
[6] = tested on: NB-4; assay: Antiproliferative activity against human NB-4 cells; type: functional, cell-based
[7] = tested on: SK-BR-3; assay: Cytotoxicity against human SK-BR-3 cells incubated for 48 hrs by MTT assay; type: functional, cell-based; settings: SK-BR-3, 48 h
[8] = tested on: MG-63; assay: Cytotoxicity against human MG-63 cells incubated for 48 hrs by MTT assay; type: functional, cell-based; settings: MG-63, 48 h
[9] = tested on: HeLa; assay: Cytotoxicity against human HeLa cells incubated for 48 hrs by MTT assay; type: functional, cell-based
[10] = tested on: Bel-7402; assay: Cytotoxicity against human Bel-7402 cells incubated for 48 hrs by MTT assay; type: functional, cell-based; settings: Bel-7402, 48 h
[11] = tested on: HepG2; assay: Antiproliferative activity against human HepG2 cells assessed as reduction in cell viability measured after 48 hrs by trypan blue staining method; type: functional, cell-based; settings: HepG2, 48 h
[12] = tested on: SW480; assay: Antiproliferative activity against human SW480 cells assessed as reduction in cell viability measured after 48 hrs by trypan blue staining method; type: functional, cell-based; settings: SW480, 48 h
[13] = tested on: Bacillus subtilis; assay: Antibacterial activity against Bacillus subtilis ATCC 23857 by disc diffusion assay; type: functional
[14] = tested on: Vaccinia virus; assay: In vivo antiviral activity against Vaccinia virus infected in mouse assessed as reduction in virus severity of virus induced tail lesion at 250 mg/kg, po measured after 24 to 48 hrs relative to control; type: functional, Orthopoxvirus vaccinia; set-up: scale not given: the % may be the effect or the level left; settings: time 24-48 hrs
[15] = Cytotoxicity against normal foreskin fibroblast cells (unknown origin); type: toxicity, cell-based
[16] = tested on: Vesicular stomatitis virus; assay: Antiviral activity against Vesicular stomatitis virus; type: functional, organism-based
[17] = tested on: Human immunodeficiency virus; assay: Antiviral activity against Human immunodeficiency virus; type: functional, organism-based; settings: Human immunodeficiency virus 1
[18] = Cytotoxicity against normal lung fibroblast cells (unknown origin); type: toxicity, cell-based
[19] = Cytotoxicity against rhabdomyosarcoma cells (unknown origin); type: functional, cell-based; settings: Rhabdomyosarcoma cell
[20] = Cytotoxicity against osteosarcoma cells (unknown origin); type: functional, cell-based; settings: Osteosarcoma cell
[21] = tested on: unidentified influenza virus; assay: Antiviral activity against influenza virus; type: functional, organism-based
[22] = Cytotoxicity against neuroblastoma cells (unknown origin); type: functional, cell-based; settings: Neuroblastoma cell
[23] = Cytotoxicity against ewing sarcoma cells (unknown origin); type: functional, cell-based; settings: Ewing sarcoma cell
[24] = Cytotoxicity against normal primary bone marrow fibroblast cells (unknown origin); type: toxicity, cell-based
[25] = tested on: Plasmodium falciparum; assay: Antimalarial activity against chloroquine resistant Plasmodium falciparum K1 in human erythrocytes; type: functional, organism-based; settings: K1, Erythrocyte
[26] = tested on: CHO; assay: Cytotoxicity against CHO cells measured after 48 hrs by MTT assay; type: toxicity, cell-based, Cricetulus griseus; settings: chinese hamster
[27] = tested on: MG-63; assay: Cytotoxicity against human MG-63 cells assessed as reduction in cell viability measured after 48 hrs by MTT assay; type: functional, cell-based; settings: MG-63, 48 h
[28] = tested on: Bel-7402; assay: Cytotoxicity against human Bel-7402 cells assessed as reduction in cell viability measured after 48 hrs by MTT assay; type: functional, cell-based; settings: Bel-7402, 48 h
[29] = tested on: HeLa; assay: Cytotoxicity against human HeLa cells assessed as reduction in cell viability measured after 48 hrs by MTT assay; type: functional, cell-based
[30] = tested on: A549; assay: Cytotoxicity against human A549 cells assessed as reduction in cell viability measured after 48 hrs by MTT assay; type: functional, cell-based; settings: A549, 48 h
[31] = target: Beta-secretase 1 (Homo sapiens, UniProt P56817); assay: Inhibition of BACE1 (unknown origin)
[32] = tested on: MDA-MB-231; assay: Cytotoxicity against human MDA-MB-231 cells assessed as reduction in cell viability by MTT assay; type: functional, cell-based
[33] = tested on: MCF7; assay: Cytotoxicity against human MCF7 cells assessed as reduction in cell viability by MTT assay; type: functional, cell-based
[34] = tested on: Trypanosoma cruzi; assay: Antiprotozoal activity against Trypanosoma cruzi; type: functional; settings: read-out: ED50 (the source's name)
[35] = tested on: Trypanosoma brucei; assay: Antiprotozoal activity against Trypanosoma brucei; type: functional; settings: read-out: ED50 (the source's name)
[36] = tested on: Leishmania donovani; assay: Antiprotozoal activity against Leishmania donovani; type: functional; settings: read-out: ED50 (the source's name)
[37] = tested on: Plasmodium falciparum; assay: Antimalarial activity against chloroquine resistant Plasmodium falciparum K14 in human blood assessed as reduction in parasitemia measured after 42 hrs; type: functional, organism-based

Chain of Glucocorticoid receptor (Homo sapiens) (P04150 whole entry): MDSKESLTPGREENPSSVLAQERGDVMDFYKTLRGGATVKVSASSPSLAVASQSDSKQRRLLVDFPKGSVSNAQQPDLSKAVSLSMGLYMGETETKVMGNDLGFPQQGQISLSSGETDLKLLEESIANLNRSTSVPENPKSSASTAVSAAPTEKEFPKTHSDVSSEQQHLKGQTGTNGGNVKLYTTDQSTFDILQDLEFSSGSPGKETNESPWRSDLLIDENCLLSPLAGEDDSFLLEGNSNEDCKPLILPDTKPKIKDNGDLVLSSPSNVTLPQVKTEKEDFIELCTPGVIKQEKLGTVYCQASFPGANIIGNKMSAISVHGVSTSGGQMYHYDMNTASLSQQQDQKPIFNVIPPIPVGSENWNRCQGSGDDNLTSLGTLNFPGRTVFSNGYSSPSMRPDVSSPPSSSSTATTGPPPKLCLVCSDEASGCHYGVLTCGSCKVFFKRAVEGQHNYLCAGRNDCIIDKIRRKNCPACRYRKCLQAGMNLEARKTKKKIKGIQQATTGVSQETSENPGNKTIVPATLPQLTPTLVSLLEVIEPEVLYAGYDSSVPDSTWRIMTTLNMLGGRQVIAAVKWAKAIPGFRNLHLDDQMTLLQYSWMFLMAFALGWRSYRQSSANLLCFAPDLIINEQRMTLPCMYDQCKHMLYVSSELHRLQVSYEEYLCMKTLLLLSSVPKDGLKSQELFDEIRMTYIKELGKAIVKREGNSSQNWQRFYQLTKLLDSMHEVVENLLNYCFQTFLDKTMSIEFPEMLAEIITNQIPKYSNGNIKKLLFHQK
Chain of Beta-secretase 1 (P56817 whole entry): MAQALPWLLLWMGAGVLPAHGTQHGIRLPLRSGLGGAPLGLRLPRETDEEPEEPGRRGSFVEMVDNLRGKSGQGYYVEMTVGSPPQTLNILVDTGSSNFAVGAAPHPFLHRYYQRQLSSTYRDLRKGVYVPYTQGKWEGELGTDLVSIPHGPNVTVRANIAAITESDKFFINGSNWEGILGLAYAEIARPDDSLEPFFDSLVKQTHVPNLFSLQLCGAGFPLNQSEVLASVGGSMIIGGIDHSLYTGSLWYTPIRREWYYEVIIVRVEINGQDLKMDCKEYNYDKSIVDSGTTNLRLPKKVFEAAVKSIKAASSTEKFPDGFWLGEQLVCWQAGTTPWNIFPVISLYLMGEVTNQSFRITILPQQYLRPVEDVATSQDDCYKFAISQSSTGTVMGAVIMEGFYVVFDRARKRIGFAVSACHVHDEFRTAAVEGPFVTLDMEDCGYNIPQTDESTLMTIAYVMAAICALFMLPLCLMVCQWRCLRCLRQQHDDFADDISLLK

SMILES: CN(C)C(=N)NC(=N)N [METFORMIN]
- EC50 [1]: 10000 µM

SMILES: O=C(O)CCc1c2ccc(=O)cc-2oc2cc(O)ccc12
- Kis [2]: 27 µM

SMILES: c1ccc(C2c3c(ccc4ccccc34)Oc3ccc4ccccc4c32)cc1
- Activity [3]: 31.1%
- Activity [4]: 63.5%

SMILES: COC(=O)[C@@]1(O)C[C@@H](OC(=O)c2c(C(=O)O[C@@H]3C[C@](O)(C(=O)OC)C[C@@H]4OC(C)(C)O[C@H]43)cc3ccc(O)c4c3c2-c2cc(O)c(O)cc2O4)[C@@H]2OC(C)(C)O[C@@H]2C1
- Activity [5]: 28.1%

SMILES: CNC(=O)c1ccc2c3c(ccc2c1)Oc1ccc2cc(C(=O)NC)ccc2c1C3c1ccc(Cl)cc1
- IC50 [6]: 0.76 µM

SMILES: COc1cc(C2c3c(ccc4ccccc34)Oc3ccc4ccccc4c32)ccc1O
- Activity [3]: 86.8%
- Activity [4]: 83.1%

SMILES: Cc1c(C)c2c(c(C)c1O)CCC(C)(CCCC(C)CCCC(C)CCCC(C)C)O2 (racemic)
- Activity [5]: 61.1%

SMILES: COc1ccc(C2c3c(ccc4ccccc34)Oc3ccc4ccccc4c32)cc1
- Activity [3]: 47.1%
- Activity [4]: 67.5%

SMILES: Fc1ccc(C2c3cc(-c4ccccc4)ccc3Oc3ccc4ccccc4c32)cc1 (centres undefined)
- IC50 [6]: > 50 µM

SMILES: Clc1ccc(C2c3cc(-c4ccccc4)ccc3Oc3ccc4ccccc4c32)cc1 (centres undefined)
- IC50 [6]: > 50 µM

SMILES: Cc1cc(C(C)(C)C)c(O)c(C(C)(C)C)c1
- Activity [5]: 3.6%

SMILES: O=C1C=Cc2cccc3c2C1c1c(ccc2ccccc12)O3 (centres undefined)
- IC50 [7]: 15.5 µM
- IC50 [8]: 20.1 µM
- IC50 [9]: 18.5 µM
- IC50 [10]: 17.6 µM

SMILES: CC(=O)Oc1cc2c(cc1OC(C)=O)-c1c(C(=O)OCCc3ccccc3)c(C(=O)OCCc3ccccc3)cc3ccc(OC(C)=O)c(c13)O2
- IC50 [11]: 26.7 µM
- IC50 [12]: 3.21 µM

SMILES: O=C1C(CO)=Cc2cccc3c2C1(O)c1c(ccc2ccccc12)O3 (centres undefined)
- IC50 [7]: 26.2 µM
- IC50 [8]: 54.8 µM
- IC50 [9]: 68.8 µM
- IC50 [10]: 45.2 µM

SMILES: COc1cc2c(cc1OC)-c1c(C(=O)OCCc3ccccc3)c(C(=O)OCCc3ccccc3)cc3ccc(OC)c(c13)O2
- IC50 [11]: > 100 µM
- IC50 [12]: > 100 µM

SMILES: c1ccc(-c2ccc3c(c2)C(c2ccccc2)c2c(ccc4ccccc24)O3)cc1 (centres undefined)
- IC50 [6]: > 50 µM

SMILES: COC(=O)c1cc2ccc(OC)c3c2c(c1C(=O)OC)-c1cc(OC)c(OC)cc1O3
- IC50 [11]: > 100 µM
- IC50 [12]: > 100 µM

SMILES: COCc1cc(C)cc2c1Oc1ccc(C)cc1C2
- MIC [13]: 25.4 µg/mL (≈ 99.9 µM)

SMILES: O=C(Nc1cccc([N+](=O)[O-])c1)NC(NC(=O)C1c2ccccc2Oc2ccccc21)C(Cl)(Cl)Cl (centres undefined)
- EC50 [1]: 1.5 µM

SMILES: CNC(=O)c1ccc2c3c(ccc2c1)Oc1ccc2cc(C(=O)NC)ccc2c1C3c1ccc(F)cc1
- IC50 [6]: 0.52 µM

SMILES: O=[As][As+](=O)[O-] (centres undefined) [ARSENIC TRIOXIDE]
- IC50 [6]: 5.31 µM

SMILES: COC(=O)c1cc2ccc(O)c3c2c(c1C(=O)OC)-c1cc(O)c(O)cc1O3
- IC50 [11]: 34.8 µM
- IC50 [12]: 32.9 µM

SMILES: O=C1OC(=O)c2c1cc1ccc(O)c3c1c2-c1cc(O)c(O)cc1O3
- IC50 [11]: > 100 µM
- IC50 [12]: > 100 µM

SMILES: COc1ccc(C2c3c(ccc4ccccc34)Oc3ccc4ccccc4c32)cc1OC
- Activity [3]: 52.6%
- Activity [4]: 70.8%

SMILES: COC12C(=O)C=Cc3cc(Br)cc(c31)Oc1ccc3cc(Br)ccc3c12 (centres undefined)
- IC50 [7]: 14.3 µM
- IC50 [8]: 39.2 µM
- IC50 [9]: 28.1 µM
- IC50 [10]: 42.3 µM

SMILES: Cc1ccc(C2c3cc(-c4ccccc4)ccc3Oc3ccc4ccccc4c32)cc1 (centres undefined)
- IC50 [6]: > 50 µM

SMILES: CN(C)CC(=O)c1ccc2c(c1)Cc1cc(C(=O)CN(C)C)ccc1O2
- Activity [14]: 31%

SMILES: O=C(N[C@H](CO)[C@H](O)c1ccc([N+](=O)[O-])cc1)C(Cl)Cl [CHLORAMPHENICOL]
- MIC [13]: 68.7 µg/mL (≈ 213 µM)

SMILES: Oc1ccc(C2c3c(ccc4ccccc34)Oc3ccc4ccccc4c32)cc1
- Activity [3]: 53.1%
- Activity [4]: 73.2%

SMILES: O=C(O)/C=C/c1ccc(O)c(O)c1
- Activity [5]: 58.6%

SMILES: O=C(O)c1c(Cl)c(Cl)c(Cl)c(Cl)c1-c1c2cc(I)c(=O)c(I)c-2oc2c(I)c(O)c(I)cc12 [ROSE BENGAL SODIUM]
- IC50 [15]: 73 µM
- IC50 [16]: 0.008 µM
- IC50 [17]: 0.05 µM
- IC50 [18]: 75 µM
- IC50 [19]: 51 µM
- IC50 [20]: 75 µM
- IC50 [21]: 0.3 µM
- IC50 [22]: 73 µM
- IC50 [23]: 45 µM
- IC50 [24]: 136 µM

SMILES: CN(C)CCCNCC1c2ccccc2Oc2ccccc21
- IC50 [25]: 0.78 µM
- IC50 [26]: 331.1 µM

SMILES: N#Cc1cccc(NC(=O)NC(NC(=O)C2c3ccccc3Oc3ccccc32)C(Cl)(Cl)Cl)c1 (centres undefined)
- EC50 [1]: 1.5 µM

SMILES: CC(=O)C1C(=O)C[C@@H]2CC[C@@]13c1c(cccc12)Oc1ccc2ccccc2c13 (some centres undefined)
- IC50 [27]: 82.5 µM
- IC50 [28]: 17.1 µM
- IC50 [29]: 30.1 µM
- IC50 [30]: 54.9 µM

SMILES: CC(C)(C)C(=O)N[C@H]1CC[C@@H]2Oc3ccc(-c4cncc(F)c4)cc3C3(CSC(N)=N3)[C@H]2C1 (some centres undefined)
- IC50 [31]: 0.0011 µM

SMILES: O=C(OCCc1ccccc1)c1cc2ccc(O)c3c2c(c1C(=O)OCCc1ccccc1)-c1cc(O)c(O)cc1O3
- IC50 [11]: 4.76 µM
- IC50 [12]: 2.57 µM
- Activity [5]: 3.6%

SMILES: CC/C(=C1\c2ccccc2Oc2cc(OCCN3CCCC3)ccc21)c1ccccc1
- IC50 [32]: 25.4 µM
- IC50 [33]: 12.4 µM

SMILES: CCOC12C(=O)C(CO)=Cc3cc(CO)cc(c31)Oc1c(CO)cc3cc(CO)ccc3c12 (centres undefined)
- IC50 [7]: 6.2 µM
- IC50 [8]: 25.2 µM
- IC50 [9]: 9.4 µM
- IC50 [10]: 10.1 µM

SMILES: CN(C)CCCNC(=O)c1cc(C(C)(C)C)cc2c1Oc1c(C(=O)NCCCN(C)C)cc(C(C)(C)C)cc1C2(C)C
- EC50 [34]: 0.48 µM
- EC50 [35]: 0.02 µM
- EC50 [36]: 0.55 µM

SMILES: Cc1cc2nc3cc(C)c(N)cc3[n+](-c3ccccc3)c2cc1N
- Kis [2]: 453 µM

SMILES: Cc1ccc(O)c(COCc2cc(C)cc3c2Oc2ccc(C)cc2C3)c1
- MIC [13]: 36.1 µg/mL (≈ 100 µM)

SMILES: CCOc1ccc(N2C(=O)C3(c4ccccc4Oc4ccccc43)C23c2ccccc2-c2ccccc23)cc1
- IC50 [37]: 5 µM

SMILES: COC(=O)c1cc2ccc(OC(C)=O)c3c2c(c1C(=O)OC)-c1cc(OC(C)=O)c(OC(C)=O)cc1O3
- IC50 [11]: 28.6 µM
- IC50 [12]: 25.5 µM
